This passage reports EC50 results from article PMC3192407, “Both Basic and Acidic Amino Acid Residues of IpTxa Are Involved in Triggering Substate of RyR1” (Journal of Biomedicine and Biotechnology, 2011).

Molecules are shown by their SMILES. Bridge positions count the residues as written; N and C are the ends. Peptide text beside a SMILES is read from it.

For this assay, the target named is T1, rabbit skeletal RyR1 (native RyR1 in HSR) (Oryctolagus cuniculus, UniProt P11716).
T1 construct: tested using native RyR1 in rabbit skeletal HSR; from tissue; host or cells: rabbit fast-twitch back and leg muscles (heavy SR vesicles)
The experiment in a line: Planar lipid bilayer single-channel recording, native RyR1 in HSR. The assay is classed as biochemical. The following applies: native RyR1 in SR, toxin cis, 6-100 nM, -30 mV, [Ca^2+]free 10 μM, pH 7.2, Hill fit, means ± SE of 3–9 experiments; read-out: EC50 for Psubstate. Here is the method: A heavy fraction of fragmented SR vesicles (HSR) containing junctional SR was prepared from rabbit fast-twitch back and leg muscles as described previously.
Single-channel recordings of rabbit skeletal RyR1 incorporated into planar lipid bilayers were carried out as described previously. Lipid bilayers, consisting of brain tissue phosphatidylethanolamine and phosphatidylserine (1 : 1) in decane (20 mg/mL) were formed across a hole of approximately 200 μm diameter. Thinning of the bilayer was monitored by bilayer capacitance. The basic composition of the cis/trans solution consisted of 300 mM cesium methanesulfonate, 10 mM Tris/Hepes (pH 7.2), 2 mM EGTA, and 1.998 mM CaCl2 ([Ca^2+]free = 10 μM). [Ca^2+]free was calculated using the “Chelator” program (Theo Schoenmaker). Cs^+ was selected as the charge carrier to ensure precise control of free [Ca^2+], to increase the channel conductance, and to avoid any contribution from potassium channels present in the SR membrane. Chloride channels were inhibited by using the impermeant anion methanesulfonate. Incorporation of ion channels was carried out as described by Miller and Racker and confirmed by recording the characteristically high single-channel conductance of RyRs. The trans side was maintained at ground and the cis side was clamped at −30 mV relative to the ground. After addition of the IpTxa to the cis chamber, the single channel data were collected at −30 mV for 2–5 min. […] Recordings were filtered with an 8-pole low-pass Bessel filter at 1 kHz and digitalized through a Digidata 1200 series interface (Axon Instruments). Data acquisition and analysis were done with the Axon Instruments software, pClamp v7.0.
Data were analyzed using the Hill equation described previously:
(1) Psubstate=(Psubstate, max )/[1+(EC50/[IpTxa])^nH] orPo=(Po, max )/[1+(EC50/[IpTxa])^nH], where (Po, max ) is the Po observed at saturating concentrations of IpTxa, EC50 is the IpTxa concentration for which 50% of Po, max is obtained and nH is the Hill coefficient. Also, Psubstate, max is the Psubstate observed at saturating concentrations of IpTxa, EC50 is the IpTxa concentration for which 50% of Psubstate, max is obtained, and nH is the Hill coefficient. The probability of full open state of the channel (Po) was defined as the ratio of the time spent in the open state to the total time exclusive of time spent in the substate. The probability to obtain substate (Psubstate) was calculated as the time spent in the substate divided by a given total recording time. The durations of the substate were obtained by manual positioning of the cursors and constructing all point histograms. Mean duration of substate was measured by total substate time divided by total substate frequencies.
Results are given as means ± SE. Significant differences were analyzed using Student's t-test. Differences were considered to be significant when P < 0.05. The fitting of the data to the graphs were carried out using the software, Origin v7.
To examine how IpTxa modifies RyR1 activity, RyR1 in HSR incorporated in planar lipid bilayers was tested in the presence or absence of synthetic wild-type IpTxa. The chamber solutions for both cis (cytosolic) and trans (luminal) sides included 300 mM cesium methanesulfonate and 10 mM Tris-Hepes (pH 7.2). 10 μM free Ca^2+ was added to the cis side to activate the incorporated RyR1. After an addition of IpTxa to the cis chamber, the single channel gating properties were recorded at a holding potential of −30 mV for over 2 min at each toxin concentration. […] To examine the effects of IpTxa on full open state, we calculated the probability to obtain the full open state (Po) as the time spent in the open state divided by the total time exclusive of the time spent in the substate. The time for recorded Po was in the range of 30 s–2 min. […] The steady-state Po was 0.18 ± 0.02 at 10 μM Ca^2+. […]

T1 sequence (P11716 whole entry): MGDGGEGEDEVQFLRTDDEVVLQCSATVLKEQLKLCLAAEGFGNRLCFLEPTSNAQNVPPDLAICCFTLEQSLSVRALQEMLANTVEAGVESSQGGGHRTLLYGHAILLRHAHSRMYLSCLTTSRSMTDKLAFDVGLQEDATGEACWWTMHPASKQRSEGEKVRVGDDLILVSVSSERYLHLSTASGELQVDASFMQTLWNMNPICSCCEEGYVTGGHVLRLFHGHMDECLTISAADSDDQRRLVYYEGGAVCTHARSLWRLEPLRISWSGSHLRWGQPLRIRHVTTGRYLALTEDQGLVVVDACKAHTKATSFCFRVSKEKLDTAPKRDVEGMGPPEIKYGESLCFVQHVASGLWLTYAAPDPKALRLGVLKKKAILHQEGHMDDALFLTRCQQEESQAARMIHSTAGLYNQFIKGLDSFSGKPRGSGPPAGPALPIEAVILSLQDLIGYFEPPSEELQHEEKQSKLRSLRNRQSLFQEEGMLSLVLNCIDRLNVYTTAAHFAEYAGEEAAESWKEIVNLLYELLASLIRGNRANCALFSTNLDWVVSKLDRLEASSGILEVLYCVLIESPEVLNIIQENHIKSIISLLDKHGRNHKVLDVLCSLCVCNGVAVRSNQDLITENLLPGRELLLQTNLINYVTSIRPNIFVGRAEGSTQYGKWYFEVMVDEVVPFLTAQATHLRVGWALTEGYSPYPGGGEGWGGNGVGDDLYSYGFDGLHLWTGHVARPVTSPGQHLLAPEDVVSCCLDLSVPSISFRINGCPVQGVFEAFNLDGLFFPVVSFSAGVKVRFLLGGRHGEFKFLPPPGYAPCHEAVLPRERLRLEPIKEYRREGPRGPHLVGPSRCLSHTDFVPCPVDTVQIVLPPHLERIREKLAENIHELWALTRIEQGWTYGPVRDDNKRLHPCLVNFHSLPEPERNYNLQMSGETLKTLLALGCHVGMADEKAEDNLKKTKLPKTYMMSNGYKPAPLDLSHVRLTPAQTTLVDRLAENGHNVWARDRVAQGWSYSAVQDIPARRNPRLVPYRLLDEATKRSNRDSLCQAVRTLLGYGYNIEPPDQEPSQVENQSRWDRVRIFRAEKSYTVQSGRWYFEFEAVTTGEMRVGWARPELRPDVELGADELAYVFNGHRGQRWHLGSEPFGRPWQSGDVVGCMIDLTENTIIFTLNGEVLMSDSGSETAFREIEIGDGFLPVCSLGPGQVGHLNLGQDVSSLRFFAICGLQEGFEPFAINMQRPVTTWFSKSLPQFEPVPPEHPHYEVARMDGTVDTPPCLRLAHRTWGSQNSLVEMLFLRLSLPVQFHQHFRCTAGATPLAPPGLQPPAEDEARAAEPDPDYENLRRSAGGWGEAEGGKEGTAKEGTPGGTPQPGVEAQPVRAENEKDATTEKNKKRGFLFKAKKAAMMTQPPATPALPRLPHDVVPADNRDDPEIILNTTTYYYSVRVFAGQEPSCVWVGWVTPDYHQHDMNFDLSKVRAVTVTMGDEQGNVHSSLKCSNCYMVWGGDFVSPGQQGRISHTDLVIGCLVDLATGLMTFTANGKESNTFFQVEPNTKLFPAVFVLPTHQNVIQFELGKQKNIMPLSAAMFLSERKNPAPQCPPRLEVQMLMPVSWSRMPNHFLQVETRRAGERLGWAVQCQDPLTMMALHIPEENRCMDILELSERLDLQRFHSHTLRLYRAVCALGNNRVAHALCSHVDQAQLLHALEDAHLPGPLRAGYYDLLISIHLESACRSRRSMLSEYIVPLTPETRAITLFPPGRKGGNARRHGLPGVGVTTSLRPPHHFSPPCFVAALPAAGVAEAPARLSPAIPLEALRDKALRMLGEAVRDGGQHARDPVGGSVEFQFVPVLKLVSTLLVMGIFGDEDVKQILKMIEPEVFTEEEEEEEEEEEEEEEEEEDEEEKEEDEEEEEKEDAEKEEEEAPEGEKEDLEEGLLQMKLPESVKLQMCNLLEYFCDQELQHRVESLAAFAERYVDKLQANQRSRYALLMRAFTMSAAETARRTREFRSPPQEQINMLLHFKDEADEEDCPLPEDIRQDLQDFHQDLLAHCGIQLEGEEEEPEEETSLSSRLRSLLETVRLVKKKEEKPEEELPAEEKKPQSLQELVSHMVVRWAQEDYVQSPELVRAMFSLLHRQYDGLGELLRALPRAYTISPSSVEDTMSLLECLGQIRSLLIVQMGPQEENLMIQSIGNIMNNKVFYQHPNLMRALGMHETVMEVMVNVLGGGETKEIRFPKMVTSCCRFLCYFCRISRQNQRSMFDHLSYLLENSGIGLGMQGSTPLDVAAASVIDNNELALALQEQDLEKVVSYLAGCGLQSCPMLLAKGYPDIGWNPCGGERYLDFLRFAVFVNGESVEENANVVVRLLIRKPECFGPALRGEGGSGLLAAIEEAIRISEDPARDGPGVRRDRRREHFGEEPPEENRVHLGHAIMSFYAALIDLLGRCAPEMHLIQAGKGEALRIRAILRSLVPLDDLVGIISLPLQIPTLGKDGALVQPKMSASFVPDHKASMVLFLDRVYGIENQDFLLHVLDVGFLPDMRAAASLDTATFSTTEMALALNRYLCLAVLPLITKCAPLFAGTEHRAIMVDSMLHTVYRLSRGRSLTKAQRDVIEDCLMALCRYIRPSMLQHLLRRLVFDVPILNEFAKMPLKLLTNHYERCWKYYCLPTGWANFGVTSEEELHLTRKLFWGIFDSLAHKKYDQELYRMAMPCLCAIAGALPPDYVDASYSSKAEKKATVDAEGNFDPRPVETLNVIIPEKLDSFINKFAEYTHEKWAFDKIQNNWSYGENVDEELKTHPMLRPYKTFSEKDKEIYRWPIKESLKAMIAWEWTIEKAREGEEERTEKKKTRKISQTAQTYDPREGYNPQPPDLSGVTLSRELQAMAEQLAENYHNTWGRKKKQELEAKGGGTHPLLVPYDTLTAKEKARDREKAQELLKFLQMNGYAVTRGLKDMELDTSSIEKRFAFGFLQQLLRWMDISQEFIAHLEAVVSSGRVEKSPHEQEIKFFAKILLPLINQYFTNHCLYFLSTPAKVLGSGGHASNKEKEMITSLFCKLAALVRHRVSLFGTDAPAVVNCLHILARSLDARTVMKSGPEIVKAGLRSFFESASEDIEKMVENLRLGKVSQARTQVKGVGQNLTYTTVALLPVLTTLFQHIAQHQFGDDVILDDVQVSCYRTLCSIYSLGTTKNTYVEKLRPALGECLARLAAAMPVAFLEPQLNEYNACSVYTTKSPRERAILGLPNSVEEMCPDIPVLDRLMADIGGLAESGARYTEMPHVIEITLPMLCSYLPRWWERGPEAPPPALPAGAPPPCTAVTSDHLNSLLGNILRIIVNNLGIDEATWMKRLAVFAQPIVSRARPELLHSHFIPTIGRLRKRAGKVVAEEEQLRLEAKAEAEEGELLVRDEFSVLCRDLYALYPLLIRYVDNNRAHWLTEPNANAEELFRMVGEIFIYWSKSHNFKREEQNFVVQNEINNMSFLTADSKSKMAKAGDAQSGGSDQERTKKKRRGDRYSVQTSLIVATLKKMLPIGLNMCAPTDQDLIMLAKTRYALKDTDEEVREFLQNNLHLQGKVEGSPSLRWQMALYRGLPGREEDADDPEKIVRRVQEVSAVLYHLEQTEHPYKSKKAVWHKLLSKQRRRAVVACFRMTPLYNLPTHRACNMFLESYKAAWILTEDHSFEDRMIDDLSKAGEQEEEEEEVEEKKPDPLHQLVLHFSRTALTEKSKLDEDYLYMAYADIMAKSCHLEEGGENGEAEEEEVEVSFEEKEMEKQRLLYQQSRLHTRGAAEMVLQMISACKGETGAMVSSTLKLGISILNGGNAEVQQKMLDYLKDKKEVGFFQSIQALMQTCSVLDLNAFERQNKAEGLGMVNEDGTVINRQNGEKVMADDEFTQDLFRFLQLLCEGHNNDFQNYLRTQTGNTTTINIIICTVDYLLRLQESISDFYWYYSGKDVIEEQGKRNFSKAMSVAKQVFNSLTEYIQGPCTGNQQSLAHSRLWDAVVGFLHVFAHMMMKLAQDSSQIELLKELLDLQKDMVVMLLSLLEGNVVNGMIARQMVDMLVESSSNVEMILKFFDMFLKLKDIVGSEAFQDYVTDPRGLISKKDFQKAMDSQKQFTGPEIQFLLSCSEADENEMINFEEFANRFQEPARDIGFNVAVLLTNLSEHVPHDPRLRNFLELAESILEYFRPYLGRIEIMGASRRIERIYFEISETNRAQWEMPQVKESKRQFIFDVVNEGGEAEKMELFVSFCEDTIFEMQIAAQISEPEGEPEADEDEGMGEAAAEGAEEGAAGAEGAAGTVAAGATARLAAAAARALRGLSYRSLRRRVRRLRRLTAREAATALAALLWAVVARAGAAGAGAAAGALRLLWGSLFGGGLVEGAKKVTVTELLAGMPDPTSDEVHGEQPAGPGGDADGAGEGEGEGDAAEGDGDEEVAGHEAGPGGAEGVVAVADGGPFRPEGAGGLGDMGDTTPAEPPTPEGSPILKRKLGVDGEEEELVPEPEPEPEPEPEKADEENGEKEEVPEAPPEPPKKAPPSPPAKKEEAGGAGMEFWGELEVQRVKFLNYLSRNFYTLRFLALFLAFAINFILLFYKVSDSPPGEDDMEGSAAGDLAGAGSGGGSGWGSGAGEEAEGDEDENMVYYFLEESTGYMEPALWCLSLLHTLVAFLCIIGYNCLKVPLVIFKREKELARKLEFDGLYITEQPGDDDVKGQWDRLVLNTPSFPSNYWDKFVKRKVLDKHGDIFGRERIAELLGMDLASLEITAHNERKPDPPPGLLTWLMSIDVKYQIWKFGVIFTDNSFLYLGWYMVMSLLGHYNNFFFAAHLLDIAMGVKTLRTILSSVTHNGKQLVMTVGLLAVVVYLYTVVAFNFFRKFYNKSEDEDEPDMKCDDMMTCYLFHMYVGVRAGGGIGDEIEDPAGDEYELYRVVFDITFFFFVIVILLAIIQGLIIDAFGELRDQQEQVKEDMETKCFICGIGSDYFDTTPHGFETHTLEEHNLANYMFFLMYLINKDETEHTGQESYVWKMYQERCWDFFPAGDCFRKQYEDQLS

For orientation: EC50 means the concentration giving half of the maximal effect. As to `CC(C)C[C@@H]1NC(=O)[C@H](Cc2c[nH]cn2)NC(=O)[C@@H]2CCCN2C(=O)[C@H](CC(C)C)NC(=O)[C@@H](NC(=O)[C@H](CC(=O)O)NC(=O)CN)CSSC[C@@H]2NC(=O)[C@@H]3CSSC[C@@H](C(=O)N[C@@H](CCCNC(=N)N)C(=O)O)NC(=O)[C@H](CCCNC(=N)N)NC(=O)[C@H](CCCCN)NC(=O)[C@H](CCC(=O)O)NC(=O)[C@H](C)NC(=O)[C@H](CC(N)=O)NC(=O)[C@H]([C@@H](C)O)NC(=O)CNC(=O)[C@H](CCCNC(=N)N)NC(=O)[C@H](CCCNC(=N)N)NC(=O)[C@H](CCCCN)NC(=O)[C@H](CSSC[C@H](NC(=O)[C@H](CCCNC(=N)N)NC(=O)[C@H](CCCCN)NC1=O)C(=O)N[C@@H](CCCCN)C(=O)N[C@@H](C)C(=O)N[C@@H](CC(=O)O)C(=O)N[C@@H](CC(N)=O)C(=O)N[C@@H](CC(=O)O)C(=O)N3)NC(=O)[C@H](CCCCN)NC(=O)[C@H](C)NC(=O)CNC2=O` [K19A] (H-GDCLPHLKRCKADNDCCGAKCKRRGTNAEKRCR-OH; disulfide 3-17, 10-21, 16-32), the EC50 worked out at 21.8 ± 6.47 nM.

As to `CC(C)C[C@@H]1NC(=O)[C@H](Cc2c[nH]cn2)NC(=O)[C@@H]2CCCN2C(=O)[C@H](CC(C)C)NC(=O)[C@@H](NC(=O)[C@H](CC(=O)O)NC(=O)CN)CSSC[C@@H]2NC(=O)[C@@H]3CSSC[C@@H](C(=O)N[C@@H](CCCNC(=N)N)C(=O)O)NC(=O)[C@H](CCCNC(=N)N)NC(=O)[C@H](CCCCN)NC(=O)[C@H](CCC(=O)O)NC(=O)[C@H](C)NC(=O)[C@H](CC(N)=O)NC(=O)[C@H]([C@@H](C)O)NC(=O)CNC(=O)[C@H](CCCNC(=N)N)NC(=O)[C@H](CCCNC(=N)N)NC(=O)[C@H](CCCCN)NC(=O)[C@H](CSSC[C@H](NC(=O)[C@H](CCCNC(=N)N)NC(=O)[C@H](CCCCN)NC1=O)C(=O)N[C@@H](CCCCN)C(=O)N[C@@H](C)C(=O)N[C@@H](CC(=O)O)C(=O)N[C@@H](CC(N)=O)C(=O)N[C@@H](CC(=O)O)C(=O)N3)NC(=O)[C@H](C)NC(=O)[C@H](CCCCN)NC(=O)CNC2=O` [K20A] (H-GDCLPHLKRCKADNDCCGKACKRRGTNAEKRCR-OH; disulfide 3-17, 10-21, 16-32), the half-maximal effective concentration (EC50) was determined as 18.5 ± 8.17 nM.

For the molecule `CC(C)C[C@@H]1NC(=O)[C@H](Cc2c[nH]cn2)NC(=O)[C@@H]2CCCN2C(=O)[C@H](CC(C)C)NC(=O)[C@@H](NC(=O)[C@H](CC(=O)O)NC(=O)CN)CSSC[C@@H]2NC(=O)[C@@H]3CSSC[C@@H](C(=O)N[C@@H](CCCNC(=N)N)C(=O)O)NC(=O)[C@H](CCCNC(=N)N)NC(=O)[C@H](CCCCN)NC(=O)[C@H](C)NC(=O)[C@H](C)NC(=O)[C@H](CC(N)=O)NC(=O)[C@H]([C@@H](C)O)NC(=O)CNC(=O)[C@H](CCCNC(=N)N)NC(=O)[C@H](CCCNC(=N)N)NC(=O)[C@H](CCCCN)NC(=O)[C@H](CSSC[C@H](NC(=O)[C@H](CCCNC(=N)N)NC(=O)[C@H](CCCCN)NC1=O)C(=O)N[C@@H](CCCCN)C(=O)N[C@@H](C)C(=O)N[C@@H](CC(=O)O)C(=O)N[C@@H](CC(N)=O)C(=O)N[C@@H](CC(=O)O)C(=O)N3)NC(=O)[C@H](CCCCN)NC(=O)[C@H](CCCCN)NC(=O)CNC2=O` [E29A] (H-GDCLPHLKRCKADNDCCGKKCKRRGTNAAKRCR-OH; disulfide 3-17, 10-21, 16-32), the EC50 was determined as 6.07 ± 4.28 nM.
